In US20050004126A1 (priority 2001, published 2005):
Read-outs that look alike come from different tables or passages of the source.

Tests used:
[1] = biological target: T1, MMP-2FL (full length Gelatinase A) (Homo sapiens, UniProt P08253); assay: Thiopeptolide hydrolysis assay, MMP-2; type: biochemical
T1 sequence (P08253 110-660): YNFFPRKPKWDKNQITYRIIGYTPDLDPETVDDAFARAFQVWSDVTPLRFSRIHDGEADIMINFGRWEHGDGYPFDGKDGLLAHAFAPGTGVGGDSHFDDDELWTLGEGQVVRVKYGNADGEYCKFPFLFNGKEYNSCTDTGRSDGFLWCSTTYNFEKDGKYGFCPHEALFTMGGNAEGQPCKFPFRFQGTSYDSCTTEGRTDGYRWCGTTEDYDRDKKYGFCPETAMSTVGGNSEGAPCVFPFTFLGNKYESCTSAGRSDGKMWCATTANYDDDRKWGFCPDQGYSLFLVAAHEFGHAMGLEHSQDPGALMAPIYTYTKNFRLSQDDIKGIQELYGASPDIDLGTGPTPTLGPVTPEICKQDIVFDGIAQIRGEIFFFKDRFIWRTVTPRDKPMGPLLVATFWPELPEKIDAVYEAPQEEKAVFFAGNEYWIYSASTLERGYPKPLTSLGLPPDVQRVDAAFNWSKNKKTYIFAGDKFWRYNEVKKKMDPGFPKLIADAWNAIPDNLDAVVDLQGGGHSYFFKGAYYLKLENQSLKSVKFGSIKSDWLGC

[2] = biological target: MMP-3CD (catalytic domain of stromelysin) (Homo sapiens, UniProt P08254); assay: Thiopeptolide hydrolysis assay, MMP-3; type: biochemical;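 also: inhibition of thiopeptolide substrate (100 µM) cleavage by the MMP-3 catalytic domain, detected with DTNB at pH 6.0 with CaCl2, hydrolysis compared against runs lacking inhibitor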
Procedure: (§1) They measure the amount by which a test compound reduces the hydrolysis of a thiopeptolide substrate caused by a matrix metalloproteinase enzyme.
(§2) Thiopeptolide substrates show virtually no decomposition or hydrolysis in the absence of a matrix metalloproteinase enzyme. A typical thiopeptolide substrate commonly utilized for assays is Ac-Pro-Leu-Gly-thioester-Leu-Leu-Gly-OEt. A 100 μL assay mixture will contain 50 mM of 2-morpholinoethane sulfonic acid monohydrate (MES, pH 6.0) 10 mM CaCl2, 100 μM thiopeptolide substrate, and 1 mM 5,5′-dithio-bis-(2-nitro-benzoic acid) (DTNB). […] Assays are carried out with and without matrix metalloproteinase inhibitor compounds, and the amount of hydrolysis is compared for a determination of inhibitory activity of the test compounds.

[3] = biological target: T2, MMP-7FL (full-length matrilysin) (Homo sapiens, UniProt P09237); assay: Thiopeptolide hydrolysis assay, MMP-7; type: biochemical
T2 sequence (P09237 95-267): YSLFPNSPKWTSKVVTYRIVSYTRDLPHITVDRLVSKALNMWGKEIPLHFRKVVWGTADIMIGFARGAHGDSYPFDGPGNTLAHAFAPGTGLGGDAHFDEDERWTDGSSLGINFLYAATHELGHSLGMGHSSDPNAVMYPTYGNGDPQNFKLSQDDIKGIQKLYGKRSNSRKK

[4] = biological target: MMP-9FL (full length Gelatinase B) (Homo sapiens, UniProt P14780); assay: Thiopeptolide hydrolysis assay, MMP-9; type: biochemical
[5] = biological target: MMP-14CD (catalytic domain of membrane type 1 MMP) (Homo sapiens, UniProt P50281); assay: Thiopeptolide hydrolysis assay, MMP-14; type: biochemical
[6] = biological target: T3, MMP-1FL (full-length interstitial collagenase) (Homo sapiens, UniProt P03956); assay: Thiopeptolide hydrolysis assay, MMP-1; type: biochemical
T3 sequence (P03956 100-469): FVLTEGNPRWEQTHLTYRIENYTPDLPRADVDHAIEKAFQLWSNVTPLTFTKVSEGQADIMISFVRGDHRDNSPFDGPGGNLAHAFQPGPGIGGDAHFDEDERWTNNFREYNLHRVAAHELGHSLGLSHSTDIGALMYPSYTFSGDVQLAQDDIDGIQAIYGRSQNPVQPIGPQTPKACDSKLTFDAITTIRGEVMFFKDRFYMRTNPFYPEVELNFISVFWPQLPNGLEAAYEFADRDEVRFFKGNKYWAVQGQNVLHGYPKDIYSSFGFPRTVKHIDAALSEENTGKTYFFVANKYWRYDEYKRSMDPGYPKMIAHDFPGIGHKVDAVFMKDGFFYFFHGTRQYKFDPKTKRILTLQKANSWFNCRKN

[7] = biological target: MMP-13CD (catalytic domain of collagenase 3) (Homo sapiens, UniProt P45452); assay: Thiopeptolide hydrolysis assay, MMP-13;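 also: inhibition of enzymatic thiopeptolide substrate cleavage (100 µM) in pH 6.0 MES buffer with CaCl2 and DTNB, comparing hydrolysis with versus without inhibitor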
Procedure: as §1, §2

[8] = biological target: MMP-13 (Homo sapiens, UniProt P45452); conditions: cited from earlier work
[9] = system: other MMP enzymes; conditions: Chen et al.; cited from earlier work
[10] = Table 1a, full-length enzyme, read-out: MMP02 (FL) IC50
[11] = Table 1a, full-length enzyme, read-out: MMP07 (FL) IC50
[12] = Table 1a, full-length enzyme, read-out: MMP09 (FL) IC50
[13] = Table 1a, catalytic domain, read-out: MMP14 (CD) IC50
[14] = Table 1a, full-length enzyme, read-out: MMLP01 (FL) IC50
[15] = Table 1a, catalytic domain, read-out: MMP03 (CD) IC50
[16] = MMP13 (CD) IC50 μM, Table 1a, catalytic domain

Sequence of MMP-9FL (full length Gelatinase B) (P14780 94-707): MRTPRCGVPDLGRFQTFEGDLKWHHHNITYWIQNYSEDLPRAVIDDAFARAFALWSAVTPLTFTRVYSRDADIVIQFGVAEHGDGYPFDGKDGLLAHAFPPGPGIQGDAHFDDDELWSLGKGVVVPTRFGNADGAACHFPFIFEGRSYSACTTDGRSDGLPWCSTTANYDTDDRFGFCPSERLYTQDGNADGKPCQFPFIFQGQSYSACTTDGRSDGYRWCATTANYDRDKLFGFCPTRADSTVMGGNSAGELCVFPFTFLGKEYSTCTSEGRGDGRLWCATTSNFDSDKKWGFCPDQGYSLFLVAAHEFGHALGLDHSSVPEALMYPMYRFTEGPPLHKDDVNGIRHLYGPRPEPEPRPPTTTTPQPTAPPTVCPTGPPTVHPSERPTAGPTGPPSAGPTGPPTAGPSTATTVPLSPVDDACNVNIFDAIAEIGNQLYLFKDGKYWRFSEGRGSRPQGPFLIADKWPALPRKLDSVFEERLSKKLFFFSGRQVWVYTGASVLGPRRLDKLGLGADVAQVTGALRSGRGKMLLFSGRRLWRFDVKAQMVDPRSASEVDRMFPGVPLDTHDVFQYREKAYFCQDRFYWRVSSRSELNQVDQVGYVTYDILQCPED
Sequence of MMP-3CD (catalytic domain of stromelysin) (P08254 100-272 limits assumed): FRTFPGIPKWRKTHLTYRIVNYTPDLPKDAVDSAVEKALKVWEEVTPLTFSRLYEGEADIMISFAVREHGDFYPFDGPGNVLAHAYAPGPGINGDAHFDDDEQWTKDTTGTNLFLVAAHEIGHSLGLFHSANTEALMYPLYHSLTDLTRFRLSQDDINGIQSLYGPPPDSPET

IC50 [1, 10]	IC50 [3, 11]	IC50 [4, 12]	IC50 [5, 13]	Compound	IC50 [2, 15]	IC50 [7, 16]	also measured
> 100 µM	> 100 µM	> 100 µM	> 100 µM	O=C(OCc1ccccc1)c1cn2c(=O)n(Cc3ccccc3)c(=O)cc2s1 [Example 1]	–	–	IC50 ([2]; read-out: MMP03 (CD) IC50): > 100 µM
81 µM	> 100 µM	> 100 µM	> 100 µM	O=C(NCc1ccccc1)c1cn2c(=O)n(Cc3ccccc3)c(=O)cc2s1 [Example 2]	> 100 µM	0.51 µM	IC50 [6, 14]: > 100 µM
> 100 µM	> 100 µM	> 100 µM	> 100 µM	COc1ccc(CNC(=O)c2cn3c(=O)n(Cc4ccc(C(=O)O)cc4)c(=O)c(C)c3s2)cc1 [Example 5]	29 µM	0.0015 µM	IC50 [6, 14]: > 100 µM
> 100 µM	> 100 µM	> 100 µM	> 100 µM	COc1ccc(CNC(=O)c2cn3c(=O)n(Cc4ccc(Cl)c(Cl)c4)c(=O)cc3s2)cc1 [Example 8]	> 100 µM	0.084 µM	IC50 [6, 14]: > 100 µM
–	–	–	–	COc1ccc(CNC(=O)c2cn3c(=O)n(Cc4ccc(C(=O)O)cc4)c(=O)c(C)c3s2)cc1 [Synthesis Example 5, 4-[2-(4-Methoxy-benzylcarbamoyl)-8-methyl-5,7-dioxo-7H-thiazolo[3,2-c]pyrimidin-6-ylmethyl]-benzoic acid]	–	–	melting point: > 210 °C
–	–	–	–	O=C(OCc1ccncc1)c1cc2c(=O)n(Cc3ccccc3)c(=O)[nH]c2s1 [Synthesis Example 18, 3-Benzyl-2,4-dioxo-1,2,3,4-tetrahydro-thieno[2,3-d]pyrimidine-6-carboxylic acid pyridin-4-ylmethyl ester]	–	–	melting point: 248 to 250 °C
–	–	–	–	COC(=O)c1ccc(Cn2c(=O)c3cc(C(=O)NCc4ccc(OC)cc4)ccc3n3cnnc23)cc1 [Synthesis Example 59, Methyl 4-{7-[(4-methoxybenzyl)-carbamoyl]-5-oxo-5H-[1,2,4]triazolo[4,3-a]quinazol-4-ylmethyl}benzoate]	–	–	melting point: 210 °C; IC50 ([7]; IC50 μM, Table V, MMP-13): 0.0026 µM
–	–	–	–	O=C(O)c1ccc(Cn2c(=O)c3cc(C(=O)NCc4ccc5c(c4)OCO5)ccc3n3cnnc23)cc1 [Synthesis Example 61, 4-{7-[(1,3-Benzodioxol-5-ylmethyl)-carbamoyl]-5-oxo-5H-[1,2,4]triazolo[4,3-a]quinazol-4-ylmethyl}benzoic acid]	–	–	melting point: 235 °C; IC50 ([7]; IC50 μM, Table V, MMP-13): 0.0009 µM
–	–	–	–	Cc1cc(C)c(N(Cc2ccccc2)S(=O)(=O)c2ccc(OCCNC(=O)c3cc4ccccc4o3)cc2)c(C(=O)NO)c1 [WAY-170523]	–	–	selectivity for MMP-13 ([8]; as reported by Chen et al.): selective inhibitor of MMP-13
–	–	–	–	CN1C(=O)N(Cc2ccccc2)S(=O)(=O)c2cc(C(=O)NCc3ccccc3)ccc21 [compound 63]	–	–	IC50 ([6]; Table VI, synthesis examples, read-out: MMP01): > 100 µM; IC50 ([1]; Table VI, synthesis examples, read-out: MMP02): > 30 µM; IC50 ([2]; Table VI, synthesis examples, read-out: MMP03): > 30 µM; IC50 ([3]; Table VI, synthesis examples, read-out: MMP07): > 30 µM; IC50 ([4]; Table VI, synthesis examples, read-out: MMP09): > 30 µM; IC50 ([5]; Table VI, synthesis examples, read-out: MMP014): > 30 µM
–	–	–	–	O=C(NCCCCN1CCOCC1)c1cc2ccccc2o1 [compound of the formula I]	–	–	inhibition against MMP-13 ([8]; high throughput screening hit, Chen et al.): weak inhibition; activity against other MMP enzymes [9]: inactive

Compound	IC50 [1, 10]	IC50 [3, 11]	IC50 [4, 12]	IC50 [5, 13]	IC50 [2, 15]	IC50 [7, 16]	also measured
Cc1c(=O)n(Cc2ccccc2)c(=O)n2cc(C(=O)OCc3ccccc3)sc12 [Example 3]	> 100 µM	> 100 µM	> 100 µM	–	> 30 µM	0.0056 µM	IC50 [5]: > 100 µM
Cc1c(=O)n(Cc2ccc(C(=O)O)cc2)c(=O)n2cc(C(=O)NCc3ccncc3)sc12 [Example 6]	> 100 µM	> 100 µM	> 100 µM	> 100 µM	> 100 µM	0.0057 µM	–
Cc1c(=O)n(Cc2ccc(S(C)(=O)=O)cc2)c(=O)n2cc(C(=O)NCc3ccncc3)sc12 [Example 7]	> 100 µM	> 100 µM	> 100 µM	> 100 µM	> 100 µM	0.0235 µM	–
